“And” between values parts separate entries of the source, which are not always exact repeats. Equal values may be shown once.
How the values were obtained:
[1] = molar heat capacity at constant pressure; settings: 101.33 kPa, Crystal, Vacuum adiabatic calorimetry
[2] = 101.33 kPa, Crystal, Vacuum adiabatic calorimetry

CC(=O)[CH-]C(C)=O.CC(=O)[CH-]C(C)=O.[Cu+2] [bis(2,4-pentanedionato-O,O')copper]
Settings | molar entropy, [2] [J/K/mol] | molar heat capacity at constant pressure, [1]
5 K | 0.229 | 0.667 J/K/mol
6.54 K | – | 1.427 J/K/mol
9.03 K | – | 3.433 J/K/mol
10 K | 1.632 | 4.4 J/K/mol
11.38 K | – | 6.016 J/K/mol
13.66 K | – | 9.127 J/K/mol
15 K | 4.62 | 11.23 J/K/mol
16.64 K | – | 13.96 J/K/mol
20 K | 9.07 | 20.52 J/K/mol and 20.5 J/K/mol
22.84 K | – | 26.59 J/K/mol
25 K | 14.79 | 31.33 J/K/mol
25.85 K | – | 33.31 J/K/mol
29.17 K | – | 40.64 J/K/mol
30 K | 21.5 | 42.65 J/K/mol
32.85 K | – | 49.04 J/K/mol
35 K | 28.92 | 53.76 J/K/mol
36.85 K | – | 57.9 J/K/mol
40 K | 36.8 | 64.51 J/K/mol
40.6 K | – | 65.62 J/K/mol
44.11 K | – | 72.98 J/K/mol
45 K | 44.99 | 74.72 J/K/mol
48.18 K | – | 80.84 J/K/mol
50 K | 53.37 | 84.29 J/K/mol
52.32 K | – | 88.52 J/K/mol
55 K | 61.8 | 93.1 J/K/mol
56.3 K | – | 95.12 J/K/mol
60 K | 70.3 | 101 J/K/mol
60.23 K | – | 101.6 J/K/mol
64.13 K | – | 107 J/K/mol
65 K | 78.6 | 108.3 J/K/mol
68.13 K | – | 112.6 J/K/mol
70 K | 86.9 | 115.1 J/K/mol
72.3 K | – | 118.2 J/K/mol
76.49 K | – | 123.2 J/K/mol
80 K | 103.1 | 127.4 J/K/mol
80.07 K | – | 127.4 J/K/mol
80.38 K | – | 128 J/K/mol
85.04 K | – | 132.9 J/K/mol
89.68 K | – | 137.8 J/K/mol
90 K | 118.8 | 138.1 J/K/mol
94.05 K | – | 142.1 J/K/mol
98.21 K | – | 146 J/K/mol
100 K | 133.8 | 147.6 J/K/mol
102.43 K | – | 149.8 J/K/mol
106.73 K | – | 153.5 J/K/mol
110 K | 148.3 | 156.4 J/K/mol
110.87 K | – | 157.3 J/K/mol
115.52 K | – | 160.9 J/K/mol
120 K | 162.3 | 164.5 J/K/mol
120.66 K | – | 165 J/K/mol
125.63 K | – | 169 J/K/mol
130 K | 175.7 | 172.1 J/K/mol
130.45 K | – | 172.4 J/K/mol
135.15 K | – | 176 J/K/mol
139.73 K | – | 179.1 J/K/mol
140 K | 188.8 | 179.4 J/K/mol
144.22 K | – | 182.5 J/K/mol
148.61 K | – | 185.6 J/K/mol
150 K | 201.4 | 186.6 J/K/mol
152.93 K | – | 188.8 J/K/mol
157.17 K | – | 191.5 J/K/mol
160 K | 213.6 | 193.5 J/K/mol
161.35 K | – | 194.4 J/K/mol
165.97 K | – | 197.3 J/K/mol
170 K | 225.6 | 199.8 J/K/mol
171.03 K | – | 200.5 J/K/mol
176 K | – | 203.5 J/K/mol
180 K | 237.2 | 206.2 J/K/mol
180.9 K | – | 206.9 J/K/mol
185.74 K | – | 210.1 J/K/mol
190 K | 248.5 | 213 J/K/mol
190.5 K | – | 213.3 J/K/mol
195.21 K | – | 216.6 J/K/mol
199.87 K | – | 219.6 J/K/mol
200 K | 259.6 | 219.6 J/K/mol
204.46 K | – | 222.6 J/K/mol
209.01 K | – | 225.1 J/K/mol
210 K | 270.5 | 225.9 J/K/mol
213.51 K | – | 228.2 J/K/mol
217.97 K | – | 231.3 J/K/mol
220 K | 281.1 | 232.5 J/K/mol
222.38 K | – | 234.3 J/K/mol
226.74 K | – | 236.8 J/K/mol
230 K | 291.6 | 238.9 J/K/mol
231.06 K | – | 239.5 J/K/mol
235.35 K | – | 242.2 J/K/mol
239.58 K | – | 245.1 J/K/mol
240 K | 301.9 | 245.4 J/K/mol
243.77 K | – | 247.8 J/K/mol
248.11 K | – | 250.8 J/K/mol
250 K | 312.1 | 252 J/K/mol
252.68 K | – | 253.8 J/K/mol
257.27 K | – | 256.6 J/K/mol
260 K | 322.1 | 258.5 J/K/mol
261.9 K | – | 259.8 J/K/mol
266.49 K | – | 262.7 J/K/mol
270 K | 331.9 | 265.2 J/K/mol
271.04 K | – | 266.1 J/K/mol
275.54 K | – | 268.5 J/K/mol
280 K | 341.7 | 271.7 J/K/mol
280.45 K | – | 272.3 J/K/mol
285.75 K | – | 275.1 J/K/mol
290 K | 351.4 | 278.3 J/K/mol
291 K | – | 279 J/K/mol
296.16 K | – | 282.5 J/K/mol
298.15 K | 359.1 | 283.9 J/K/mol
300 K | 360.9 | 285.2 J/K/mol
300.51 K | – | 285.7 J/K/mol
304.76 K | – | 288.6 J/K/mol
308.97 K | – | 291.5 J/K/mol
310 K | 370.4 | 292.4 J/K/mol
313 K | 373.2 | 294.5 J/K/mol
313.16 K | – | 294.6 J/K/mol

Reference: the NIST ThermoML archive (doi:10.1016/j.jct.2019.05.010)
